Results on four compounds are retold here after US20240408059A1, “METHOD OF TREATING ADDICTION” (Anebulo Pharmaceuticals, Inc., priority 2021, published 2024).

The conditions of series [1]: patients taking the drug long term; vs 5%; cited from earlier work.
The target of series [2] is T1, CYP3A4 (Homo sapiens, UniProt P08684). The settings on record: CYP3A4 inhibitors increase the concentrations of both drugs; cited from earlier work.
Series [3] is described as follows: Half-life of Compound 2 (once daily dosing, steady state). It is filed as in vivo. The settings on record: accumulation enables slow onset; 24 h coverage in steady state with once daily dosing. As to the method: (§1) In steady state, the patient has 24 h coverage despite convenient once daily dosing. […] Both antidepressants and drug withdrawal can decrease the seizure threshold.

The target in series [4] is T1, CYP3A4. Description: Drug-drug interactions, CYP3A4 inhibition. It is filed as in vitro ADME. How it is done: as §1
Series [5] can be described thus: Seizure liability. The settings on record: in vivo. How it is done: as §1
Series [6] can be described thus: Compound 2 in treatment of cannabis use disorder (CUD) / cannabis withdrawal. It is filed as in vivo, human. The text has this:
Compound 2 is used in a combination treatment for cannabis use disorder (CUD). Combinations include use of antidepressants (specifically sedating antidepressants, such as mirtazapine or trazodone), antipsychotics, CB1 agonists such as THC and allosteric CB1 modulators such as Cannabidiol. These agents improve the safety profile of a CB1 inhibitor as described herein, such as compound 2, and lessen the burden of the withdrawal symptoms.
The benefits of a combination therapy comprising compound 2 and a sedating antidepressant, such as Mirtazapine or Trazodone, are outline in Table 1 below.
Daily doses such as between about 5 mg and about 100 mg of Compound 2 are efficacious in CUD. Doses of 1-50 mg or 20 to 30 mg may also be used. Compound 2 is also evaluated in combination with daily doses of Mirtazapine at about 15 mg to about 45 mg, or daily doses of Trazodone at about 50 mg to about 400 mg. Mirtazapine is given at bedtime. In another embodiment, Compound 2 and Mirtazapine are formulated and administered as a single oral dosage form, such as a tablet or a capsule.

Molecules are shown by their SMILES.

T1 sequence (P08684 whole entry): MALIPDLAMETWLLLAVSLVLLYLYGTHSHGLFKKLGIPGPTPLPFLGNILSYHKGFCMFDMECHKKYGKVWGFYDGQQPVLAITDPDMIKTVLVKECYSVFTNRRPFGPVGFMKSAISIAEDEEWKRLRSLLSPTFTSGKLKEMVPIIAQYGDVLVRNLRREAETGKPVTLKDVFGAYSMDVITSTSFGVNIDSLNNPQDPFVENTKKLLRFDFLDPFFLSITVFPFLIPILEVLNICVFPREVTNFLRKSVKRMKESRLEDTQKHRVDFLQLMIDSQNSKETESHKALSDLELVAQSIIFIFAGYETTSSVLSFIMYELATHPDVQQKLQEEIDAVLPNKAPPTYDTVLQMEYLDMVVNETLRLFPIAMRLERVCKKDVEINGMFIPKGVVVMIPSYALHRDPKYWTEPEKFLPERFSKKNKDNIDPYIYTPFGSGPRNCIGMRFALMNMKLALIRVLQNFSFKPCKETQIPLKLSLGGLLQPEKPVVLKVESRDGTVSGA

Turning to `Cc1c(C(=O)NN2CCCCC2)nn(-c2ccc(Cl)cc2Cl)c1-c1ccc(Cl)cc1` [Rimonabant], the incidence of depression in series [1] is recorded as 9%.
For the compound `CN1CCN2c3ncccc3Cc3ccccc3C2C1` (stereo not shown) [Mirtazapine], the metabolizing enzyme entry in series [2] is “metabolized by CYP3A4”.
Take `O=c1n(CCCN2CCN(c3cccc(Cl)c3)CC2)nc2ccccn12` [Trazodone]: the metabolizing enzyme entry in series [2] was “metabolized by CYP3A4”.
With `CC(C)(C)NC(=O)N1CC(O[C@H](c2ccc(Cl)cc2)c2ccccc2C(F)(F)F)C1` [Compound 2, (R)—N-(tert-butyl)-3-((4-chlorophenyl)(2-(trifluoromethyl)phenyl)methoxy)azetidine-1-carboxamide], in series [3], the half-life entry is on record as “Long half-life”. In series [4], the “drug-drug interactions, particularly CYP3A4 inhibition” value is recorded as “Lack of drug-drug interactions, particularly CYP3A4 inhibition”. Moreover, the seizure liability entry in series [5] is listed as “Lack of seizure liability”. Besides, in series [6] (cannabis withdrawal), the “Effect of Compound 2 on anxiety (withdrawal symptoms)” value is “Increases anxiety”, the “Effect of Compound 2 on high probability of THC use/relapse: anti-addictive properties” value is given as “has anti-addictive”, the “Effect of Compound 2 on high probability of THC use/relapse: getting high” value is listed as “Blocks getting high +” and the “Effect of Compound 2 on mood” value is on record as “Depressed mood”. Further, in series [6] (cannabis withdrawal), the “Effect of Compound 2 on sleep problems (withdrawal symptoms)” value is given as “Increases sleep” and the “Effect of Compound 2 on weight” value was “Weight loss”. Also, the “efficacy in CUD” value in series [6] (daily doses between about 5 mg and about 100 mg) is “efficacious”.
